“Also recorded” adds a separate entry of the source.
Assays:
[1] = tested on: Taxol®-induced mechanical allodynia; test: Taxol Induced Peripheral Neuropathy Model (pilot), Von Frey testing; assay type: in vivo, Sprague-Dawley rats; conditions: 100 mg/kg po daily for 12 days with Taxol 2 mg/kg i.p. days 1, 3, 5, 7; Day 12
Experimental: In addition, the compound's effects on spontaneous locomotor activity was measured.
The animals were housed in polycarbonate plastic cages, 2 animals per cage, at a temperature of 18-26° C., 30-70% humidity, 12-hour light/dark cycle, with food and water available ad libityum.
On days 1, 3, 5, and 7, the rats received an ip (intraperitoneal) injection of Taxol® (2 mg/kg).
Two behavioral tests were performed: measurement of tactile sensitivity and spontaneous locomotor activity. At baseline and on Days 5 and 12 post-Taxol® injection, the animals underwent Von Frey testing for mechanical allodynia (according to the procedure as described in Chaplan, S R, Bach, F W, Pogrel, J W, Chung, J M, Yaksh, T L. Quantitative assessment of tactile allodynia in the rat paw. J Neurosci Meth, 53:55-63, 1994). Tactile sensitivity (i.e. mechanical allodynia) was measured using calibrated filaments touched to the plantar surface of the affected limb to determine paw withdrawal threshold. Briefly, the rats were placed in a Plexiglas cage with a wire mesh bottom and allowed to acclimate for 10 minutes. Once the animals settled, the plantar surface of the right hind paw was touched with a 2.0 g von Frey filament. […] Data were analyzed using two-way ANOVA, one-way ANOVA and Dunnett's test, with statistical significance at p<0.05.

[2] = tested on: formalin-induced inflammatory-mediated pain response (licking of injected hind-paw); test: Mouse Formalin Assay (NINDS); assay type: in vivo, mice
Experimental: The mouse formalin test is an acute and chronic model for testing the ability of a test compound for the treatment of pain.
In the Mouse Formalin Test, 0.5% formalin was injected s.c. into the plantar region of the hind-paw of adult male mice to induce an inflammatory-mediated pain response. Pain was expressed as licking of the injected area in a bi-modal manner—acute and chronic phase. The acute phase occurred immediately and lasted approximately […] post-injection, representing direct stimulation of pain fibers. Licking behavior resumes approximately 10 mins later (˜20 min post injection) and lasted 10-15 min, representing the chronic phase hypothesized to be caused by the release of inflammatory mediators such as cytokines.
Activity in the acute phase of the formalin test is an indicator of acute pain believed to correlate with peripheral pain pathways.
Compound #8 was evaluated in the Mouse Formalin Test as described above. […] For the acute phase the decrease was 52% from control (p<0.01), while for the chronic phase the decrease was 43% from control (p<0.01).

[3] = 110 mg/kg, i.p. 15 min prior to formalin injection, p<0.01

## NS(=O)(=O)NC[C@H]1COc2cc(Cl)ccc2O1 [Compound #8, (2S)-(−)-N-(6-Chloro-2,3-dihydro-benzo[1,4]dioxin-2-ylmethyl)-sulfamide]
[1]
  effect on Taxol-induced mechanical allodynia: appeared to potentiate the pain response compared to Taxol® alone; however, this difference was not statistically significant; also recorded: ineffective in preventing the allodynia
[2]; 60 mg/kg i.p., p<0.01
  chronic phase decrease from control: 40%
[2]; 60 mg/kg i.p., p<0.05
  acute phase decrease from control: 30%
[2]; [3]
  acute phase decrease from control: 52%
  chronic phase decrease from control: 43%

Source: patent US8716231B2, “Use of benzo-fused heterocycle sulfamide derivatives for the treatment of pain” (Janssen Pharmaceutica NV, priority 2005, dated 2014)
